According to patent US9040712B2, “Thiadiazole analogs thereof and methods for treating SMN-deficiency-related-conditions” (NOVARTIS AG, priority 2013, dated 2015):

Tested on: SMN protein
Assay: cellular SMN ELISA (SMN protein elevation)
Assay type: cell-based
Settings: myoblast cell line derived from SMNdelta7 mouse model; 24 hours compound treatment; concentration range 100 pM-10 uM
Summary of the method: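 Myoblasts derived from the SMNdelta7 mouse model, 3000 cells/well, treated with compound (100 pM–10 uM) for 24 h, then lysed in modified RIPA buffer. SMN protein quantified by sandwich ELISA (anti-SMN mAb capture, rabbit polyclonal detection, HRP/TMB, 450 nm). Results given as fold activation over DMSO and EC50.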

| SMILES | EC50 [nM] | SMN Activity Fold (fold activation over DMSO control) [fold] |
| --- | --- | --- |
| CN1C[C@@H]2CN(c3nnc(-c4ccc(-c5cn[nH]c5)cc4F)s3)C[C@@H]2C1 [Example 84, 2-(2-fluoro-4-(1H-pyrazol-4-yl)phenyl)-5-((3aR,6aS)-5-methylhexahydropyrrolo[3,4-c]pyrrol-2(1H)-yl)-1,3,4-thiadiazole] | 193 | 2.11 |
| COc1cc(-c2cnn(C)c2)ccc1-c1nnc(N2CC3(CCCNC3)C2)s1 [Example 85, 2-(2-methoxy-4-(1-methyl-1H-pyrazol-4-yl)phenyl)-5-(2,6-diazaspiro[3.5]nonan-2-yl)-1,3,4-thiadiazole] | 282 | 2.22 |
| COc1cc(-c2cnn(C)c2)ccc1-c1nnc(N2CC3(CCNCC3)C2)s1 [Example 86, 2-(2-methoxy-4-(1-methyl-1H-pyrazol-4-yl)phenyl)-5-(2,7-diazaspiro[3.5]nonan-2-yl)-1,3,4-thiadiazole] | 152 | 2.33 |
| CN(c1nnc(-c2ccc(-n3cccn3)cc2O)s1)C1CC(C)(C)NC(C)(C)C1 [Example 87, 2-(5-(methyl(2,2,6,6-tetramethylpiperidin-4-yl)amino)-1,3,4-thiadiazol-2-yl)-5-(1H-pyrazol-1-yl)phenol] | 171 | 2.76 |
| CN(c1nnc(-c2ccc(-c3ccc(=O)[nH]c3)cc2Cl)s1)C1CC(C)(C)NC(C)(C)C1 [Example 88, 5-(3-chloro-4-(5-(methyl(2,2,6,6-tetramethylpiperidin-4-yl)amino)-1,3,4-thiadiazol-2-yl)phenyl)pyridin-2(1H)-one] | 160 | 2.22 |
| CNc1ccn(-c2ccc(-c3nnc(N(C)C4CC(C)(C)NC(C)(C)C4)s3)c(O)c2)n1 [Example 89, 2-(5-(methyl(2,2,6,6-tetramethylpiperidin-4-yl)amino)-1,3,4-thiadiazol-2-yl)-5-(3-(methylamino)-1H-pyrazol-1-yl)phenol] | 106 | 2.85 |
| CN(c1nnc(-c2c(O)cc(-c3cn[nH]c3)cc2F)s1)C1CC(C)(C)NC(C)(C)C1 [Example 90, 3-fluoro-2-(5-(methyl(2,2,6,6-tetramethylpiperidin-4-yl)amino)-1,3,4-thiadiazol-2-yl)-5-(1H-pyrazol-4-yl)phenol] | 6 | 2.57 |
| CN(c1nnc(-c2c(O)cc(-c3cn[nH]c3)c(F)c2F)s1)C1CC(C)(C)NC(C)(C)C1 [Example 91, 3,4-difluoro-2-(5-(methyl(2,2,6,6-tetramethylpiperidin-4-yl)amino)-1,3,4-thiadiazol-2-yl)-5-(1H-pyrazol-4-yl)phenol] | – | 2.67 |
| CN(c1nnc(-c2cc3c(cc2O)C(=O)CC3)s1)C1CC(C)(C)NC(C)(C)C1 [Example 92, 6-hydroxy-5-(5-(methyl(2,2,6,6-tetramethylpiperidin-4-yl)amino)-1,3,4-thiadiazol-2-yl)-2,3-dihydro-1H-inden-1-one] | 91 | 2.50 |
| CN(c1nnc(-c2ccc(-c3cn[nH]c3)cc2O)s1)C1CC(C)(C)NC(C)(C)C1 [Example 93, 2-(5-(methyl(2,2,6,6-tetramethylpiperidin-4-yl)amino)-1,3,4-thiadiazol-2-yl)-5-(1H-pyrazol-4-yl)phenol] | 404 | 2.47 |
| Cn1cc(-c2ccc(-c3nnc(N4CC5(CCCNC5)C4)s3)c(O)c2)cn1 [Example 94, 2-(5-(2,6-diazaspiro[3.5]nonan-2-yl)-1,3,4-thiadiazol-2-yl)-5-(1-methyl-1H-pyrazol-4-yl)phenol] | 155 | 2.59 |
| Cn1cc(-c2ccc(-c3nnc(N4CC5(CCNCC5)C4)s3)c(O)c2)cn1 [Example 95, 2-(5-(2,7-diazaspiro[3.5]nonan-2-yl)-1,3,4-thiadiazol-2-yl)-5-(1-methyl-1H-pyrazol-4-yl)phenol] | 53 | 2.44 |
